Reference: patent US20160338955A1, “ANTIGEN-SPECIFIC IMMUNOTHERAPY USING TOLERIZING LIPOSOMES” (PLS-Design GmbH, priority 2015, published 2016)
Like-named read-outs stand apart in the source and are kept apart here. Values belong to the compound of their own block, whether it stands above or below them.

Tests used:
murine CD22 = target: T1, murine CD22 (Mus musculus, UniProt P35329); settings: cited from earlier work
T1 sequence (P35329 22-868): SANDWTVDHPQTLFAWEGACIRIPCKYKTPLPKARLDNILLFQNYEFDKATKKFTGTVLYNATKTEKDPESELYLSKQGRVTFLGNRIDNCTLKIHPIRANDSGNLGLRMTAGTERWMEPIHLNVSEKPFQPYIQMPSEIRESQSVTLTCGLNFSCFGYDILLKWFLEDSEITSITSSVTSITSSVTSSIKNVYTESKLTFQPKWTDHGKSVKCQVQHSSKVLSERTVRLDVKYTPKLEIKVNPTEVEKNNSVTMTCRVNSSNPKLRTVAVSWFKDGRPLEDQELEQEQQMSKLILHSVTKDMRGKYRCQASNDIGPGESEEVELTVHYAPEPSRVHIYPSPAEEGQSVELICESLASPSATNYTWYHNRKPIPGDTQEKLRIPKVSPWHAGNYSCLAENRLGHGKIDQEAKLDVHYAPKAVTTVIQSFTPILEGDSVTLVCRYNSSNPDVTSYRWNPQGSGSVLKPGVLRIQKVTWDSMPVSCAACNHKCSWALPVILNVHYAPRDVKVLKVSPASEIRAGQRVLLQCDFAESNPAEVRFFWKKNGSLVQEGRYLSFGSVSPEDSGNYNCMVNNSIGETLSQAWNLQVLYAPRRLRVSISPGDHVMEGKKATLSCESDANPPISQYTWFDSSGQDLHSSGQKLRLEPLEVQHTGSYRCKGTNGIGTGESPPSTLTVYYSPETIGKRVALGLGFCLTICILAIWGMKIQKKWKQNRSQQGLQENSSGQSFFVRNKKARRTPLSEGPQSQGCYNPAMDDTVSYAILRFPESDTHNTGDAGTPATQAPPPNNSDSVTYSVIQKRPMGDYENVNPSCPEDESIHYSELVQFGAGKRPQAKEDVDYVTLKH

[1] = tested on: human polymorphonuclear leukocyte (PMN) trans-endothelial migration; settings: equipotent to resolvin D1; read-out: EC50 of reduction of PMN trans-endothelial migration; cited from earlier work
leukocyte infiltration = settings: 100 ng dose; cited from earlier work
phagocytes = settings: cited from earlier work; for maximal migration of phagocytes (increase): at about 100 nM; for concentration effecting maximal migration of phagocytes: transwell migration assay
P2X7 = target: T2, P2X7 (Homo sapiens, UniProt Q99572); settings: read-out: EC50 for activation of P2X7; cited from earlier work
T2 sequence (Q99572 1-595): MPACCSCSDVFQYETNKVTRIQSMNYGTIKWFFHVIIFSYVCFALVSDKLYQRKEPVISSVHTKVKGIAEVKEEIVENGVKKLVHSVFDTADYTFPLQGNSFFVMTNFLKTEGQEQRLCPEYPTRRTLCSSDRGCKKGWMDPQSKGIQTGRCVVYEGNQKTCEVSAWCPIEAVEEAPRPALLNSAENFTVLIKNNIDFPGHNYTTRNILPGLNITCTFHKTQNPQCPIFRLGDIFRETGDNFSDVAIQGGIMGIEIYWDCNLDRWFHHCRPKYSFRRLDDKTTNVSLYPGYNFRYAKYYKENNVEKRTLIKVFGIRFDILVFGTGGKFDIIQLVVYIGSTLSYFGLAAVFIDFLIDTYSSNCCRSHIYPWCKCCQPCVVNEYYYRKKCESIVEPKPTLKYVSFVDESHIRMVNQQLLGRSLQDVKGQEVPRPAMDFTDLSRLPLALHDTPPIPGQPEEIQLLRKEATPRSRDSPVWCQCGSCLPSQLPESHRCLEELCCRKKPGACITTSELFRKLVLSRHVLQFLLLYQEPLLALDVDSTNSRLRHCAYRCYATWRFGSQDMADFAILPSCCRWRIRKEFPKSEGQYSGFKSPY

P2Y2 = P2Y2 (Homo sapiens, UniProt P41231); settings: read-out: EC50 for activation of P2Y2; cited from earlier work
[2] = In vitro release of ATP from PLGA-PEG-PLGA hydrogels; type: physicochemical
Method: An aliquot of 20 μl of a 10 mM solution of ATP is combined with 160 μl of 25% gel solution of Example 4.1 and 20 μl of 10×PBS (final concentration of ATP is 1 mM). The mixture is incubated for 2 minutes at 37° C. to induce gelling and overlayed with 1 ml of 1×PBS. At frequent timepoints the supernatant is removed by pipetting and stored at 4° C. The removed supernatant is replaced by fresh 1 ml of 1×PBS. After 48 hours the samples are measured spectrometrically at 260 nm and the amount of released ATP is calculated as percentage of a reference sample containing a concentration of ATP equaling 100% release.

[3] = cited from earlier work
[4] = Release of DexP from PLGA-PEG-PLGA hydrogels; type: physicochemical
Method: The biodegradable PLGA-PEG-PLGA triblock polymer used in this example has a PLG/PEG weight ratio of 2.3 (70/30), and a lactide/glycolide molar ratio of approx. 15/1. Synthesis of the triblock copolymer is performed as described in Example 2.1. A 20 mM stock solution of DexP in PBS (10.3 mg/ml; MW 516.4; Sigma-Aldrich) is diluted 1:40 in PBS (final concentration: 0.5 mM), and 20 μl of the diluted stock solution is combined with 160 μl of 25% gel solution and 20 μl of 10×PBS (final concentration of DexP: 0.05 mM).
The mixture of 5.2.1 is incubated for 2 minutes at 37° C. to induce gelling and overlayed with 200 μl of 1×PBS. At frequent time points the supernatant is removed by pipetting and stored at 4° C. The removed supernatant is replaced by fresh 200 μl of 1×PBS. Controls of the same concentration of DexP in 1×PBS without gel are incubated and sampled in parallel.
Released DexP is determined with a spectrophotometric method (Singh and Verma, 2008). The method involves oxidation of the corticosteroid by iron (III) and subsequent complexation of iron (II) with potassium hexacynoferate (III), forming a bluish green coloured complex with maximum absorbance at 780 nm (Beer's law range: 10-50 μg/ml; molar absorptivity (M^−1cm^−1): for DexP 0.55×10^4).

rheumatoid arthritis = settings: 2 μg/day for 3 months, cited from earlier work
[5] = rodents; cited from earlier work
[6] = cited from earlier work; remark: listed apart in the source
[7] = rats; cited from earlier work
[8] = cited from earlier work; remark: listed apart in the source
[9] = cited from earlier work; remark: listed apart in the source
calcium metabolism = settings: compared to 1,25-(OH)2D3; cited from earlier work
[10] = in vivo; cited from earlier work
[11] = cited from earlier work; remark: listed apart in the source
[12] = tested on: TNFR1-mediated activation of NF-κB; settings: high concentrations; cited from earlier work
type 1 diabetes = settings: cited from earlier work

Sequence of P2Y2 (P41231 whole entry, species assumed): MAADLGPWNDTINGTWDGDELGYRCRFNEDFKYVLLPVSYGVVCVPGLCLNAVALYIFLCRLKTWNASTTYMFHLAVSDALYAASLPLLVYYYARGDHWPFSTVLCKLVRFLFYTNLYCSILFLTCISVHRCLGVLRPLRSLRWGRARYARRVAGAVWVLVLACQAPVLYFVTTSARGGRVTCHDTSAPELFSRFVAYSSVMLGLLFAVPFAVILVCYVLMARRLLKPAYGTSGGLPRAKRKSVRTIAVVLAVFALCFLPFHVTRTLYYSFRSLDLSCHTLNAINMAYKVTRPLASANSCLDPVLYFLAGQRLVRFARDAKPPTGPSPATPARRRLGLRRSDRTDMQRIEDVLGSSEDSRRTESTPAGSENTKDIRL

Compound: 9-biphenylacetyl-N-glycolylneuraminic acid-α2-6-galactose-β1-4-N-acetylglucosamine-β-ethylamine [6′-^BPANeuGc]
- affinity for murine CD22, fold higher than natural ligand NeuGcα2-6Galβ1-4GlcNAc-β-ethylamine (murine CD22): 200 fold

Compound: CC/C=C\C[C@@H](O)/C=C/C=C\C=C\C=C\[C@@H](O)[C@@H](O)C/C=C\CCC(=O)O [17(R)-Resolvin D1]
- EC50 [1]: ~30 nM
- maximal inhibition of leukocyte infiltration (leukocyte infiltration): ~35%

- hydrogel-embedded ATP released ([2]; after 48 hours): approx. 75%
- further hydrogel-embedded ATP released ([2]; another, within the next 20 hours): 10%
- hydrogel-embedded ATP released ([2]; within the first 5 hours (initial burst)): approx. 50%
Compound: Nc1ncnc2c1ncn2[C@@H]1O[C@H](COP(=O)(O)OP(=O)(O)OP(=O)(O)O)[C@@H](O)[C@H]1O [ATP]
- maximal migration of phagocytes (increase) (phagocytes): threefold increase
- concentration effecting maximal migration of phagocytes (phagocytes): about 100 nM
- EC50 (P2X7): > 100000 nM
- EC50 (P2Y2): < 1000 nM

- hydrogel-embedded DexP released ([4]; after 2 days): 80-90%
- hydrogel-embedded DexP released ([4]; within the first 6 hours): 30-50%
Compound: C[C@@H]1C[C@H]2[C@@H]3CCC4=CC(=O)C=C[C@]4(C)[C@@]3(F)[C@@H](O)C[C@]2(C)[C@@]1(O)C(=O)COP(=O)(O)O [DexP, dexamethasone sodium phosphate]
- solubility in PBS ([3]; PBS): at least 25 mg/ml
- solubility in 10 mM HEPES and 135 mM NaCl, pH 6.7 ([3]; pH 6.7): at least 50 mg/ml
- solubility in water ([3]; water, product information): 50 mg/mL

Compound: O=c1ccn([C@@H]2O[C@H](COP(=O)(O)OP(=O)(O)OP(=O)(O)O)[C@@H](O)[C@H]2O)c(=O)[nH]1 [UTP]
- maximal migration of phagocytes (increase) (phagocytes): threefold increase
- concentration effecting maximal migration of phagocytes (phagocytes): about 100 nM

Compound: C=C1/C(=C\C=C2/CCC[C@]3(C)[C@@H]([C@H](C)CCCC(C)C)CC[C@@H]23)C[C@@H](O)C[C@@H]1O [alfacalcidiol]
- patients with improvement of disease activity (rheumatoid arthritis; on methotrexate): 89%
- patients going into remission (rheumatoid arthritis): 45%

Compound: C=C1CC[C@H](O)C/C1=C/C=C1\CCC[C@]2(C)[C@@H]([C@H](C)CCCC(C)(C)O)CC[C@@H]12 [calcidiol, 25-hydroxyvitamin D3]
- plasma calcidiol concentration tolerated with normocalcemia [5]: 250 to 1000 nM
- plasma calcidiol concentration producing vitamin D toxicity ([6]; Jones (2008)): above 0.75 μM
- calcidiol level at which toxicity occurs ([6]; Shephard and DeLuca (1980)): ≥ 500 ng/mL

Compound: C=C1/C(=C\C=C2/CCC[C@]3(C)[C@@H]([C@H](C)/C=C/[C@@H](O)C4CC4)CC[C@@H]23)C[C@@H](O)C[C@@H]1O [calcipotriol]
- single s.c. dose up to which no death occurred [7]: ≤ 540 μg/kg body weight
- rate of clearance, times higher than for 1,25-(OH)2D3 ([8]; compared to 1,25-(OH)2D3 / calcitriol): approximately 140 times
- detectable in serum by HPLC up to ([8]; i.v. injection of 10 μg/kg in rats): up to 5 min
- detectable in serum by HPLC up to ([8]; i.v. injection of 50 μg/kg in rats): up to 10 min
- applied dose absorbed systemically ([9]; applied to normal skin): 5%
- applied dose absorbed systemically ([9]; ointment applied topically to psoriasis plaques): approximately 6%
- effect on calcium metabolism, times less than 1,25-(OH)2D3 (calcitriol) (calcium metabolism): 100-200 times

Compound: C[C@]12CCC(=O)C=C1CC[C@@H]1[C@@H]2C(=O)C[C@@]2(C)[C@H]1CC[C@]2(O)C(=O)CO [cortisone]
- glucocorticoid potency (in words) [10]: rather low potency

Compound: C[C@@H]1C[C@H]2[C@@H]3CCC4=CC(=O)C=C[C@]4(C)[C@@]3(F)[C@@H](O)C[C@]2(C)[C@@]1(O)C(=O)CO [dexamethasone]
- plasma concentration of Dex ([11]; after 6 weeks (day 42)): 1 nM
- plasma concentration of Dex ([11]; around day 7 after i.v. 200 mg/day on three alternating days): 100 to 1000 nM

Compound: C[C@]12CCC(=O)C=C1CC[C@@H]1[C@@H]2[C@@H](O)C[C@@]2(C)[C@H]1CC[C@]2(O)C(=O)CO [hydrocortisone]
- glucocorticoid potency (in words) [10]: rather low potency

Compound: C[C@]12C=CC(=O)C=C1CC[C@@H]1[C@@H]2[C@@H](O)C[C@@]2(C)[C@H]1CC[C@]2(O)C(=O)CO [prednisolone]
- glucocorticoid potency (in words) [10]: intermediate potency

Compound: O=C([O-])c1ccccc1O.[Na+] [sodium salicylate]
- concentration inhibiting TNFR1-mediated activation of NF-κB [12]: 10 to 20 mM

Compound: C[C@]12C=CC(=O)C=C1CC[C@H]1[C@@H]3C[C@@H](O)[C@](O)(C(=O)CO)[C@@]3(C)C[C@H](O)[C@@]12F [triamcinolone]
- glucocorticoid potency (in words) [10]: intermediate potency

Compound: vitamin D
- relative risk of type 1 diabetes (type 1 diabetes; doses of exactly 50 μg/day): 0.22
- relative risk of type 1 diabetes (type 1 diabetes; doses of over 50 μg/day (2000 IU/d) during infancy, subsequent 30 years): 0.14
- odds ratio of risk for T1D by age 15 (type 1 diabetes; supplemented vs unsupplemented children): 0.67
